Structures are written as SMILES. Marks after values point to notes of the source that are not given here.

The text below walks through data of patent US9969698B2, “Quinoxalinyl-piperazinamide methods of use” (REXAHN PHARMACEUTICALS, INC., priority 2015, dated 2018).

In one data set the target is CYP3A4 (Homo sapiens, UniProt P08684). Description: Loss of RX-5902 after incubation with expressed CYP450 isozyme. The following applies: 30-minute incubation with expressed CYP3A4. The class given is in vitro ADME. As to the method:
(§1) Two in vitro studies were performed to examine the involvement of specific cytochrome P450 (CYP450) isozymes in the in vitro metabolism of RX-5902. In the first study, the loss of RX-5902 was measured after incubation with expressed CYP450 isozymes (1A2, 2A6, 2B6, 2C8, 2C9, 2C19, 2D6, 3A4 and 3A5). […] In the second study, RX-5902 was incubated with pooled human liver microsomes in the presence of CYP450 isozyme-selective chemical inhibitors. The inhibitors tested were selective for 1A2, 2A6, 2B6, 2C8, 2C9, 2C19, 2D6, and 3A4/5.

In the next data set the target is CYP3A5 (Homo sapiens, UniProt P20815). The data set is described as above. The class given is in vitro ADME. The following applies: 30-minute incubation with expressed CYP3A5. As to the method:
as §1

Data set [1] deals with human breast tumor xenografts (MDA-MB-231). Nature of the data set: Breast cancer xenograft model. The format is in vivo, mice. The following applies: for TGI % (first value of the cell) / TGI % (second value of the cell): oral. An excerpt: (§2) The efficacy of RX-5902 in human cancer xenograft mouse models is examined. Female nude mice (nu/nu, Harlan or CRL: NU(NCr)-Foxn1^nu, Charles River), 9-10 weeks old, with a body weight (BW) range of 15-30 g on day 1 of the study, are fed ad libitum water (reverse osmosis, 1 ppm C1), and NIH 31 Modified and Irradiated Lab Diet® consisting of 18.0% crude protein, 5.0% crude fat, and 5.0% crude fiber. The mice are housed on irradiated Enrich-o'Cobs™ Laboratory Animal Bedding in static microisolators on a 12-hour light cycle at 20-22° C. (68-72° F.) and 40-60% humidity. The study complies with the recommendations of the Guide for, Care and Use of Laboratory Animals with respect to restraint, husbandry, surgical procedures, feed and fluid regulation, and veterinary care.
Various human tumor cell lines (e.g., HCT116, HT29, H460, H69, Caki-1, CaSki, MiaPaca2, BxPC3 and Colo 205 cells [ATCC, Manassas, Va., USA]) are cultured according to ATCC's instruction. The tumor cells are cultured in tissue culture flasks in a humidified incubator at 37° C., in an atmosphere of 5% CO2 and 95% air.
The cells are harvested during exponential growth and re-suspended with phosphate buffered saline. Each test animal receives a subcutaneous (s.c.) injection of 5×10^6 tumor cells into the right flank and tumor growth is monitored as the average tumor size approaches the target range of 80-300 mm^3. When tumors reach the target size mice are randomized into several groups (n=10-20) and treatment with various regimens of RX-5902 or a positive (e.g., gemcitabine) or negative control (e.g.; vehicle, saline) is initiated. Tumors and body weights are measured regularly until the study is terminated.
Tumors are measured in two dimensions using calipers, and volume is calculated using the formula:
[formula] where w=width and 1=length, in mm, of the tumor. Tumor weight may be estimated with the assumption that 1 mg is equivalent to 1 mm^3 of tumor volume.
Treatment begins on Day 1 in eight groups of mice (n=10-20/group) with established subcutaneous tumors of a particular cell line. Each group is treated according to the study design. All doses are adjusted per body weight. Animals in each group are divided for efficacy and sampling purposes. There are also groups designated to vehicle control and no treatment for sampling purposes.
(§3) Treatment efficacy is determined using data from Day 15. The MTV (n), the median tumor volume for the number of animals, n, on Day 15, is determined for each group. Percent tumor growth inhibition (% TGI) is defined as the difference between the MTV of the designated control group (vehicle administration) and the MTV of the drug-treated group, expressed as a percentage of the MTV of the control group: % TGI=[1−(MTVdrug treated/MTVcontrol)]×100 The data set for TGI analysis includes all animals in a group, except those that die due to treatment-related (TR) or non-treatment-related (NTR) causes. An agent that produces at least 60% TGI in this assay is considered to be potentially therapeutically active.
Animals are monitored individually for tumor growth until Day 71. The study protocol specifies a tumor growth delay assay based on the median time to endpoint (TTE) in a treated group versus the control group. Each animal is euthanized for tumor progression (TP) when its tumor reaches the 2000 mm^3 volume endpoint. The time to endpoint (TTE) for each mouse is calculated with the following equation:
[formula] where b is the intercept and m is the slope of the line obtained by linear regression of a log-transformed tumor growth data set. The data set is comprised of the first observation that exceeds the study endpoint volume and the three consecutive observations that immediately precede the attainment of the endpoint volume. […] In instances in which the log-transformed calculated TTE precedes the day prior to reaching endpoint or exceeds the day of reaching tumor volume endpoint, a linear interpolation is performed to approximate TTE. […]

Data set [2] relates to human ovarian tumor xenografts (A-2780). Description: Cisplatin-resistant ovarian cancer xenograft model. The following applies: oral. The format is in vivo, mice.
Description: as §2
Various human tumor cell lines (e.g., HCT116, HT29, H460, H69, Caki-1, CaSki, MiaPaca2, BxPC3 and Colo 205 cells [ATCC, Manassas, Va., USA]) are cultured according to ATCC's instruction. […]
(§4) The cells are harvested during exponential growth and re-suspended with phosphate buffered saline. Each test animal receives a subcutaneous (s.c.) injection of 5×10^6 tumor cells into the right flank and tumor growth is monitored as the average tumor size approaches the target range of 80-300 mm^3. […] Tumors and body weights are measured regularly until the study is terminated.
(§5) Tumors are measured in two dimensions using calipers, and volume is calculated using the formula: […]
as §3, with “An agent that produces at least 60% TGI in this assay is considered to be potentially therapeutically active.” left out
Animals are monitored individually for tumor growth until Day 71. […]

In data set [3] the test system is ovarian tumor xenograft (SK-OV3). Description: Ovarian tumor xenograft model. The format is in vivo, mice. The following applies: oral, 5ON/2OFF.
Description: The efficacy of RX-5902 in human cancer xenograft mouse models is examined. Female nude mice (nu/nu, Harlan or CRL: NU(NCr)-Foxn1^nu, Charles River), 9-10 weeks old, with a body weight (BW) range of 15-30 g on day 1 of the study, are fed ad libitum water (reverse osmosis, 1 ppm C1), and NIH 31 Modified and Irradiated Lab Diet® consisting of 18.0% crude protein, 5.0% crude fat, and 5.0% crude fiber. The mice are housed on irradiated Enrich-o'Cobs™ Laboratory Animal Bedding in static microisolators on a 12-hour light cycle at 20-22° C. (68-72° F.) and 40-60% humidity. […]
as §4, §5
Treatment efficacy is determined using data from Day 15. The MTV (n), the median tumor volume for the number of animals, n, on Day 15, is determined for each group. […]
Animals are monitored individually for tumor growth until Day 71. […] The time to endpoint (TTE) for each mouse is calculated with the following equation: […]

For another data set, the target named is T1, Y593 phospho-p68 (Homo sapiens, UniProt P17844).
T1 construct: purchased Origene (Rockville, Md.)
T1 sequence (P17844 whole entry): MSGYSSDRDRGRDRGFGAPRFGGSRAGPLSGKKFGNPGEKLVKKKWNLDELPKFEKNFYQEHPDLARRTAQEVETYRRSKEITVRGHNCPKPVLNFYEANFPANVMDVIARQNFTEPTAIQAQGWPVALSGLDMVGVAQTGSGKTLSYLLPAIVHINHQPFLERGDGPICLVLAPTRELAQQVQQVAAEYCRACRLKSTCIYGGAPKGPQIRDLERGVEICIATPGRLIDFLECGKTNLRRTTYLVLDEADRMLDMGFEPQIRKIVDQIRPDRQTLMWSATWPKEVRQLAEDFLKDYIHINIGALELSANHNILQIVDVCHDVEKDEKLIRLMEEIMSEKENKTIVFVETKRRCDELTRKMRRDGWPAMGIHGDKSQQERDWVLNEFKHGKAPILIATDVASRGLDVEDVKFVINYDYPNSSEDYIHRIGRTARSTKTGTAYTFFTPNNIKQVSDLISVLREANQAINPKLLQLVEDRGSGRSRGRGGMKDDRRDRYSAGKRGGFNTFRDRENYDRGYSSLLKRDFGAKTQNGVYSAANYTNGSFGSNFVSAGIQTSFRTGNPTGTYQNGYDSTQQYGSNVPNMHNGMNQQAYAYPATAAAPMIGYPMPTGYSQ
Description: Filter binding assay with 3H-labeled RX-5902. The following applies: estimated by 50% of p68 bound to RX-5902. As to the method: (§6) Recombinant β-catenin was used without further treatment whereas recombinant p68 protein was either used as p68 or phosphorylated by c-Abl for filter binding assay. Recombinant c-Abl was obtained from Abeam (Cambridge, Mass.).
(§7) Filter binding studies have been previously described elsewhere (Coombs et al., Proc. Natl. Acad. Sci. USA, 75:5291-5295 (1978). Briefly, recombinant p68 RNA helicase with/without tyrosine phosphorylation was added to the ^3H-labeled RX-5902 (10 Ci/mmol) with PBS. ^3H-labeled RX-5902 was synthesized from Quotient Bioresearch (Cardiff, UK). After incubation at room temperature for 30 minutes, the binding mixtures were loaded onto a nitrocellulose membrane. The membrane was washed five times with PBS, and then dried by vacuum. The amounts of RX-5902 bound to p68 with/without phosphorylation of p68 were determined by ^3H scintillation counting. The same procedure was done with ^3H-labeled RX-5902 alone without addition of p68 RNA helicase and sample p68 RNA helicase alone without addition of the ^3H-labeled RX-5902 as background ^3H scintillation counting. The binding percentages of p68 to the compound were calculated and plotted against concentrations. The dissociation constant (Kd) was estimated by the concentration at 50% of p68 bound to RX-5902 and calculated by linear regression analysis.

Another data set deals with T2, unphosphorylated p68 (Homo sapiens, UniProt P17844).
T2 construct: purchased Origene (Rockville, Md.)
T2 sequence (P17844 whole entry): as above
Description: Filter binding assay with 3H-labeled RX-5902. The following applies: filter binding studies. As to the method: as §6, §7

CYP3A4, sequence (P08684 whole entry): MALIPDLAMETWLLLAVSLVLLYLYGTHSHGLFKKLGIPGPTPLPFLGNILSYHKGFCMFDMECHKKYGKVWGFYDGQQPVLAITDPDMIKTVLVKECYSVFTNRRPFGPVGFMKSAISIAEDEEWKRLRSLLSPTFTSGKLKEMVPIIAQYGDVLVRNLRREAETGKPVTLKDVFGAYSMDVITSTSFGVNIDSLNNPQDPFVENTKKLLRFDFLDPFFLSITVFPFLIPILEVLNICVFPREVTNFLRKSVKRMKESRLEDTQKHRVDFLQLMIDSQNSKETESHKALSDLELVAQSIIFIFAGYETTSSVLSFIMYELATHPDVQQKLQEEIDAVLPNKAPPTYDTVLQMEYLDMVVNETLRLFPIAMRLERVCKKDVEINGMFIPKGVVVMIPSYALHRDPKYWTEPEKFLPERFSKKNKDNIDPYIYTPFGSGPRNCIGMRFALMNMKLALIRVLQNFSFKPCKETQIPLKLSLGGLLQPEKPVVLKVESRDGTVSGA
CYP3A5, sequence (P20815 whole entry): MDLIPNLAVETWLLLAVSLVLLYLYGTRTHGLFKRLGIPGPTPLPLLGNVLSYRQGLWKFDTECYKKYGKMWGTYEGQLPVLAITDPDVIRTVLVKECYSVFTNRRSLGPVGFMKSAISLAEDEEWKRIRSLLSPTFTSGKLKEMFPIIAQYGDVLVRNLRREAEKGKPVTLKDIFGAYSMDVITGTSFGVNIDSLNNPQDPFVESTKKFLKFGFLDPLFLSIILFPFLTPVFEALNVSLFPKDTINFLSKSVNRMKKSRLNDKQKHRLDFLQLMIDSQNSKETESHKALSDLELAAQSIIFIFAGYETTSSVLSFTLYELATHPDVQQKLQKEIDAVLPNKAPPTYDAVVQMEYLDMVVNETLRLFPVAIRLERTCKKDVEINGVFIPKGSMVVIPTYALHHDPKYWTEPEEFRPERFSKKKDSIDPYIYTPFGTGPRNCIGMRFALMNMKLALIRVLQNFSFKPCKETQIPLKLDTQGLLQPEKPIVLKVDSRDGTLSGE

In the case of `COc1cc(OC)cc(N2CCN(C(=O)Nc3nc4cc(F)ccc4nc3OC)CC2)c1` [RX-5902, 4-(3,5-dimethoxyphenyl)-N-(7-fluoro-3-methoxyquinoxalin-2-yl)piperazine-1-carboxamide], the “loss of RX-5902” value on CYP3A4 was found to be 87%; on CYP3A5 it was 54%. Moreover, the entries for the “TGI % (first value of the cell)” value in data set [1] (160 mg/kg QWK), in data set [1] (320 mg/kg QWK) and in data set [1] (600 mg/kg QWK) were 44%, 65% and 83%, respectively. The “TGI % (second value of the cell)” value is 39% in data set [1] (160 mg/kg QWK), 82% in data set [1] (320 mg/kg QWK) and 165% in data set [1] (600 mg/kg QWK). Besides, in data set [1] (oral, 160, 320 and 600 mg/kg weekly), the “survival in treated mice” value was “extending the survival”. For the same molecule, the figures for the TGI % in data set [2] (160 mg/kg QWK), in data set [2] (320 mg/kg QWK) and in data set [2] (600 mg/kg QWK) were 43%*, 43%* and 75%*, respectively. For the same molecule, the TGD % was determined as 6%^ in data set [3] (40 mg/kg) and 49%^ in data set [3] (70 mg/kg). The Kd on Y593 phospho-p68 is about 19 nM. Moreover, the “interaction with unphosphorylated p68” value at unphosphorylated p68 was “did not interact”.
